Results: the supplement of paper PMC11061612

Key:
Olaparib = compound: O=C(c1cc(Cc2n[nH]c(=O)c3ccccc23)ccc1F)N1CCN(C(=O)C2CC2)CC1 [Olaparib]; conditions: max 10 µM
How it was run: (§1)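 Viability was measured with CellTiter-Glo 2.0 luminescence after 72 hours of dosing at a final DMSO of typically 0.2%, and scaled between blank-well and DMSO-well means. Beforehand, cancer cell lines sat 24 hours at 37°C and 5% CO2 in 1536-well plates in 7.5 μl DMEM/F12 or RPMI with 10% FBS. A non-linear mixed effects model fitted two-parameter logistic curves to the dose responses. The single-agent IC50 comes from these fits.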

Alisertib = compound: COc1cc(Nc2ncc3c(n2)-c2ccc(Cl)cc2C(c2c(F)cccc2OC)=NC3)ccc1C(=O)O [Alisertib]; conditions: max 10 µM
How it was run: as §1

AZD4320 = compound: CN(CC[C@H](CSC1=CC=CC=C1)NC2=C(C=C(C=C2)S(=O)(=O)NC(=O)C3=CC=C(C=C3)N4CCC(CC4)[C@H](C5=CC=CC=C5C6=CC=C(C=C6)Cl)O)S(=O)(=O)C(F)(F)F)CCO [AZD4320]; conditions: max 1 µM
How it was run: as §1

AZD0156 = compound: CN(C)CCCOc1ccc(-c2ccc3ncc4c(c3c2)n(C2CCOCC2)c(=O)n4C)cn1 [AZD0156]; conditions: max 3 µM
How it was run: as §1

Selumetinib = compound: Cn1cnc2c(F)c(Nc3ccc(Br)cc3Cl)c(C(=O)NOCCO)cc21 [Selumetinib]; conditions: max 10 µM
How it was run: as §1

Trametinib = compound: CC(=O)Nc1cccc(-n2c(=O)n(C3CC3)c(=O)c3c(Nc4ccc(I)cc4F)n(C)c(=O)c(C)c32)c1 [Trametinib]; conditions: max 1 µM
How it was run: as §1

AZD6738 = compound: C[C@@H]1COCCN1C2=NC(=NC(=C2)C3(CC3)[S@](=N)(=O)C)C4=C5C=CNC5=NC=C4 [AZD6738]; conditions: max 10 µM
How it was run: as §1

Lapatinib = compound: CS(=O)(=O)CCNCc1ccc(-c2ccc3ncnc(Nc4ccc(OCc5cccc(F)c5)c(Cl)c4)c3c2)o1 [Lapatinib]; conditions: max 10 µM
How it was run: as §1

Crizotinib = compound: C[C@@H](Oc1cc(-c2cnn(C3CCNCC3)c2)cnc1N)c1c(Cl)ccc(F)c1Cl [Crizotinib]; conditions: max 10 µM
How it was run: as §1

AZD7648 = compound: Cc1cc2ncnn2cc1Nc1ncc2c(n1)n(C1CCOCC1)c(=O)n2C [AZD7648]; conditions: max 10 µM
How it was run: as §1

AZD5991 = compound: Cc1c2c(nn1C)CSCc1cc(n(C)n1)CSc1cc(c3ccccc3c1)OCCCc1c(C(=O)O)n(C)c3c-2c(Cl)ccc13 [AZD5991]; conditions: max 1 µM
How it was run: as §1

SN-38 = compound: CCc1c2c(nc3ccc(O)cc13)-c1cc3c(c(=O)n1C2)COC(=O)[C@]3(O)CC [SN-38]; conditions: max 0.3 µM
How it was run: as §1

Taselisib = compound: Cc1nc(-c2cn3c(n2)-c2ccc(-c4cnn(C(C)(C)C(N)=O)c4)cc2OCC3)n(C(C)C)n1 [Taselisib]; conditions: max 10 µM
How it was run: as §1

Capivasertib = compound: C1CN(CCC1(C(=O)N[C@@H](CCO)C2=CC=C(C=C2)Cl)N)C3=NC=NC4=C3C=CN4 [Capivasertib]; conditions: max 10 µM
How it was run: as §1

AZD5153 = compound: COc1nnc2ccc(N3CCC(c4ccc(OCCN5CCN(C)C(=O)[C@H]5C)cc4)CC3)nn12 [AZD5153]; conditions: max 1 µM
How it was run: as §1

Palbociclib = compound: CC(=O)c1c(C)c2cnc(Nc3ccc(N4CCNCC4)cn3)nc2n(C2CCCC2)c1=O [Palbociclib]; conditions: max 10 µM
How it was run: as §1

Prexasertib = compound: COc1cccc(OCCCN)c1-c1cc(Nc2cnc(C#N)cn2)n[nH]1 [Prexasertib]; conditions: max 1 µM
How it was run: as §1

Savolitinib = compound: C[C@@H](c1ccc2nccn2c1)n1nnc2ncc(-c3cnn(C)c3)nc21 [Savolitinib]; conditions: max 1 µM
How it was run: as §1

Gefitinib = compound: COc1cc2ncnc(Nc3ccc(F)c(Cl)c3)c2cc1OCCCN1CCOCC1 [Gefitinib]; conditions: max 10 µM
How it was run: as §1

SG3199 = compound: CC1=CN2[C@@H](C1)C=NC3=CC(=C(C=C3C2=O)OC)OCCCCCOC4=C(C=C5C(=C4)N=C[C@@H]6CC(=CN6C5=O)C)OC [SG3199]; conditions: max 0.001 µM
How it was run: as §1

AZD1390 = compound: CC(C)n1c(=O)n(C)c2cnc3cc(F)c(-c4ccc(OCCCN5CCCCC5)nc4)cc3c21 [AZD1390]; conditions: max 0.3 µM
How it was run: as §1

Venetoclax = compound: CC1(C)CCC(CN2CCN(c3ccc(C(=O)NS(=O)(=O)c4ccc(NCC5CCOCC5)c([N+](=O)[O-])c4)c(Oc4cnc5[nH]ccc5c4)c3)CC2)=C(c2ccc(Cl)cc2)C1 [Venetoclax]; conditions: max 1 µM
How it was run: as §1

AZD8186 = compound: C[C@@H](Nc1cc(F)cc(F)c1)c1cc(C(=O)N(C)C)cc2c(=O)cc(N3CCOCC3)oc12 [AZD8186]; conditions: max 3 µM
How it was run: as §1

AZD2811 = compound: CCN(CCO)CCCOc1ccc2c(Nc3cc(CC(=O)Nc4cccc(F)c4)[nH]n3)ncnc2c1 [AZD2811]; conditions: max 1 µM
How it was run: as §1

Doxorubicin = compound: COc1cccc2c1C(=O)c1c(O)c3c(c(O)c1C2=O)C[C@@](O)(C(=O)CO)C[C@@H]3O[C@H]1C[C@H](N)[C@H](O)[C@H](C)O1 [Doxorubicin]; conditions: max 1 µM
How it was run: as §1

Dasatinib = compound: CC1=C(C(=CC=C1)Cl)NC(=O)C2=CN=C(S2)NC3=CC(=NC(=N3)C)N4CCN(CC4)CCO [Dasatinib]; conditions: max 2 µM
How it was run: as §1

AZD1775 = compound: C=CCn1c(=O)c2cnc(Nc3ccc(N4CCN(C)CC4)cc3)nc2n1-c1cccc(C(C)(C)O)n1 [AZD1775]; conditions: max 3 µM
How it was run: as §1

Cell Line	IC50, cell viability 72 h (Olaparib)	IC50, cell viability 72 h (Alisertib)	IC50, cell viability 72 h (AZD4320)	IC50, cell viability 72 h (AZD0156)	IC50, cell viability 72 h (Selumetinib)	IC50, cell viability 72 h (Trametinib)	IC50, cell viability 72 h (AZD6738)	IC50, cell viability 72 h (Lapatinib)	IC50, cell viability 72 h (Crizotinib)	IC50, cell viability 72 h (AZD7648)	IC50, cell viability 72 h (AZD5991)	IC50, cell viability 72 h (SN-38)	IC50, cell viability 72 h (Taselisib)	IC50, cell viability 72 h (Capivasertib)	IC50, cell viability 72 h (AZD5153)	IC50, cell viability 72 h (Palbociclib)	IC50, cell viability 72 h (Prexasertib)	IC50, cell viability 72 h (Savolitinib)	IC50, cell viability 72 h (Gefitinib)	IC50, cell viability 72 h (SG3199)	IC50, cell viability 72 h (AZD1390)	IC50, cell viability 72 h (Venetoclax)	IC50, cell viability 72 h (AZD8186)	IC50, cell viability 72 h (AZD2811)	IC50, cell viability 72 h (Doxorubicin)	IC50, cell viability 72 h (Dasatinib)	IC50, cell viability 72 h (AZD1775)
ALL-PO (B-Lymphoblastic Leukemia)	7820 nM	55.9 nM	21.4 nM	> 3000 nM	> 10000 nM	> 1000 nM	2120 nM	5960 nM	1810 nM	> 10000 nM	57.4 nM	2.05 nM	5290 nM	7800 nM	67.2 nM	4650 nM	17.7 nM	> 1000 nM	> 10000 nM	> 1 nM	> 300 nM	733 nM	> 3000 nM	6.76 nM	166 nM	> 2000 nM	510 nM
BE2-M17 (Neuroblastoma)	> 10000 nM	1910 nM	> 1000 nM	> 3000 nM	9300 nM	127 nM	4840 nM	> 10000 nM	8330 nM	> 10000 nM	324 nM	14.5 nM	2620 nM	> 10000 nM	> 1000 nM	> 10000 nM	24.9 nM	> 1000 nM	> 10000 nM	> 1 nM	> 300 nM	> 1000 nM	> 3000 nM	> 1000 nM	425 nM	> 2000 nM	900 nM
BPH-1 (Non-Cancerous)	> 10000 nM	1350 nM	> 1000 nM	> 3000 nM	4720 nM	80.2 nM	> 10000 nM	836 nM	> 10000 nM	> 10000 nM	> 1000 nM	6.84 nM	379 nM	> 10000 nM	69.4 nM	> 10000 nM	> 1000 nM	> 1000 nM	5900 nM	> 1 nM	> 300 nM	> 1000 nM	> 3000 nM	> 1000 nM	312 nM	127 nM	882 nM
CAL-33 (Oral Cavity Carcinoma)	> 10000 nM	553 nM	> 1000 nM	> 3000 nM	> 10000 nM	724 nM	4390 nM	3530 nM	> 10000 nM	> 10000 nM	> 1000 nM	5.71 nM	122 nM	> 10000 nM	> 1000 nM	> 10000 nM	138 nM	> 1000 nM	> 10000 nM	> 1 nM	> 300 nM	> 1000 nM	> 3000 nM	255 nM	219 nM	550 nM	659 nM
